Non-standard residues stand in square brackets, D forms with d. Residues, ends and D or L forms follow the SMILES beside them. *: point of attachment. NMeY = CN[C@@H](Cc1ccc(O)cc1)C(=O)O; Agmatine = N=C(N)NCCCCN*; Nle = CCCC[C@H](N)C(=O)O; Orn = NCCC[C@H](N)C(=O)O; Abu = CC[C@H](N)C(=O)O
Legend:
[1] = test system: myocardial infarction (Fisher-344 rats); experiment: Morphometric analysis of infarct size, rat MI model (Example 13); assay type: in vivo; settings: 50 μg/kg s.c. twice daily for 4 weeks; mean ± SEM
Experimental: Myocardial infarction (MI) was induced by permanent ligation of the left coronary artery in female 6-month-old Fisher-344 rats. Animals were randomly assigned to receive placebo (DMSO+propylene glycol) or one of the GHRH-agonists (JI-38, MR-356/P-20356, MR-409/P-27409, all 50 μg/kg), starting 4 weeks post-MI. All treatment was given subcutaneously twice daily for 4 weeks.
Rat hearts were processed using routine histological procedures. Samples were fixed in formalin.
Paraffin sections were deparaffinized and rehydrated by immersion in xylene followed by a graded series of ethanol. Antigen retrieval was performed by a heat-induced method with citrate buffer (Dako, Carpinteria, Calif.). After blocking with 10% normal donkey serum, sections were incubated with a primary antibody at 37° C. for 1 hour, followed by application of secondary antibody. Omission of the primary antibodies on parallel sections was used as negative control. Nuclei were counterstained with DAPI (Invitrogen, Carlsbad, Calif.). The total numbers of positively-stained cells (c-kit, CD45, phospho-histone H3 [pH3]) were quantified per slide to calculate the number of cells per section on each sample. Morphometric analysis was performed using Adobe Photoshop CS3 (San Jose, Calif.).

[2] = test system: myocardial infarction (Fisher-344 rats); experiment: Hemodynamic analysis (pressure-volume loops), body and heart weight after MI, compared to JI-38 (Example 15, Table 16); assay type: in vivo, rat; set-up: key to ESP (End-Systolic Pressure) / EDP (End-Diastolic Pressure) / ESV (End-Systolic Volume) / PRSW (Preload Recruitable Stroke Work) / Ees (End-systolic Elastance) / dP/dt max (peak rate of the pressure rise) / dP/dt max_EDV / dP/dt min / TAU (relaxation time constant calculated by Weiss method) / SV (Stroke Volume) / CO (Cardiac Output) / SW (Stroke Work) / EF / Ea/Ees / Ea (arterial Elastance): ↓: downward arrow denotes lower than JI-38; ↑: upward arrow denotes greater than JI-38; =denotes same as JI-38; ⬇⬇: double arrow denotes greater effect; ⬆⬆: double arrow denotes greater effect; settings: rat MI model, s.c. twice daily; pressure-volume loops; expressed in comparison to JI-38
How it was run: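 Female 6-month-old Fisher-344 rats after permanent left coronary ligation received GHRH agonists subcutaneously twice daily from 2 h post-surgery (n=10/group). Under ketamine/xylazine/acepromazine anesthesia, LV pressure-volume loops were recorded via carotid micromanometer catheter, calibrated by hypertonic saline bolus and cuvette method; echocardiography also serial.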

[3] = test system: GH release; experiment: In vivo endocrine activity, GH release after intravenous administration (Table 8); settings: rat, i.v. injection
[4] = test system: GH release; experiment: In vivo endocrine activity, GH release after subcutaneous administration (Table 9); settings: rat; for GH releasing potency relative to JI-38 (=1): subcutaneous (s.c.) injection
Experimental: Subcutaneous Administration. Adult male rats were used and anesthetized with pentobarbital (6 mg/100 g, b.w.), by i.p. injection. […] Blood samples were taken from the jugular vein 5, 15 and/or 30 minutes after the injection. The blood samples were centrifuged, plasma was removed and the GH level was measured byELISA. The results are summarized in terms of potency in Table 9.

CCCC[C@H](NC(=O)[C@@H](NC(=O)[C@H](CC(=O)O)NC(=O)[C@H](CCC(N)=O)NC(=O)[C@H](CC(C)C)NC(=O)[C@H](CC(C)C)NC(=O)[C@H](CCCN)NC(=O)[C@H](CCCNC(=N)N)NC(=O)[C@H](C)NC(=O)[C@H](CO)NC(=O)[C@H](CC(C)C)NC(=O)[C@H](CCC(N)=O)NC(=O)[C@H](CC)NC(=O)[C@H](CC(C)C)NC(=O)[C@@H](NC(=O)[C@H](CCCN)NC(=O)[C@H](CCCNC(=N)N)NC(=O)[C@H](Cc1ccc(O)cc1)NC(=O)[C@H](CO)NC(=O)[C@H](CCC(N)=O)NC(=O)[C@@H](NC(=O)[C@H](Cc1ccccc1)NC(=O)[C@@H](NC(=O)[C@H](C)NC(=O)[C@H](CC(=O)O)NC(=O)[C@H](C)NC(=O)[C@H](Cc1ccc(O)cc1)NC)[C@@H](C)CC)[C@@H](C)O)C(C)C)[C@@H](C)CC)C(=O)N[C@@H](CC(=O)O)C(=O)NCCCCNC(=N)N [Peptide P-20356, [N—Me-Tyr^1, Gln^8, Orn^12, Abu^15, Orn^21, Nle^27, Asp^28, Agm^29]hGHRH(1-29) NH2] (H-[NMeY]ADAIFTQSYR[Orn]VL[Abu]QLSAR[Orn]LLQDI[Nle]D-Agmatine)
MI size (%) [1]: 37 ± 2.5 %
CO (Cardiac Output) [2]: =
EDP (End-Diastolic Pressure) [2]: =
EF [2]: =
ESP (End-Systolic Pressure) [2]: =
ESV (End-Systolic Volume) [2]: =
Ea (arterial Elastance) [2]: ↑
Ea/Ees [2]: =
Ees (End-systolic Elastance) [2]: =
PRSW (Preload Recruitable Stroke Work) [2]: =
SV (Stroke Volume) [2]: =
SW (Stroke Work) [2]: =
TAU (relaxation time constant calculated by Weiss method) [2]: =
dP/dt max (peak rate of the pressure rise) [2]: =
dP/dt max_EDV [2]: =
dP/dt min [2]: =
GH releasing potency in vivo relative to JI-38 (=1) ([3]; 5 min after): 1.07
GH releasing potency in vivo relative to JI-38 (=1) ([3]; 15 min after): 0.91
GH releasing potency in vivo relative to JI-38 (=1) ([3]; 30 min after): 1.22
Stimulation of growth hormone levels after subcutaneous administration (in words) ([4]; s.c.): stimulated greater growth hormone levels than hGHRH or JI-38
GH releasing potency relative to JI-38 (=1) ([4]; 15 min after): 1.72
GH releasing potency relative to JI-38 (=1) ([4]; 30 min after): 1.09
